Reference: BigSolDB 2.1

Nc1cccc2c1CN(C1CCC(=O)NC1=O)C2=O (stereo not given)
solubility (mole fraction)
Conditions	273.15 K	278.15 K	283.15 K	288.15 K	293.15 K	298.15 K	303.15 K	308.15 K	313.15 K	318.15 K
in acetonitrile	0.000444	0.000458	0.000476	0.000496	0.000516	0.000536	0.000558	0.000579	0.000601	0.000623
in ethyl acetate	8e-05	9.2e-05	0.000105	0.00012	0.000136	0.000152	0.000168	0.000186	0.000206	0.000226
in isopropanol	2.5e-05	3.2e-05	4.1e-05	5.2e-05	6.6e-05	8e-05	9.5e-05	0.000114	0.000136	0.00016
in methanol	0.00019	0.000204	0.00022	0.000237	0.000256	0.000276	0.000301	0.000326	0.000351	0.000383
